In patent publication US12522594B2, “2-heteroaryl-3-oxo-2,3-dihydropyridazine-4-carboxamides for the treatment of cancer” (Deutsches Krebsforschungszentrum, priority 2017, dated 2026):

What was measured:
[1] = biological target: T1, AHR (Homo sapiens, UniProt P35869); test: In vitro assay 2: agonism in human cell line (transactivation assay, U87 cells, DRE firefly luciferase reporter); type: cell-based; design: host or cells: U87 glioblastoma cells, stably transfected with DRE firefly luciferase and renilla reporter constructs; settings: no kynurenic acid, 20 hours, read-out: Assay 2: AHR-luc Hum Agonism IC50
T1 sequence (P35869 11-848): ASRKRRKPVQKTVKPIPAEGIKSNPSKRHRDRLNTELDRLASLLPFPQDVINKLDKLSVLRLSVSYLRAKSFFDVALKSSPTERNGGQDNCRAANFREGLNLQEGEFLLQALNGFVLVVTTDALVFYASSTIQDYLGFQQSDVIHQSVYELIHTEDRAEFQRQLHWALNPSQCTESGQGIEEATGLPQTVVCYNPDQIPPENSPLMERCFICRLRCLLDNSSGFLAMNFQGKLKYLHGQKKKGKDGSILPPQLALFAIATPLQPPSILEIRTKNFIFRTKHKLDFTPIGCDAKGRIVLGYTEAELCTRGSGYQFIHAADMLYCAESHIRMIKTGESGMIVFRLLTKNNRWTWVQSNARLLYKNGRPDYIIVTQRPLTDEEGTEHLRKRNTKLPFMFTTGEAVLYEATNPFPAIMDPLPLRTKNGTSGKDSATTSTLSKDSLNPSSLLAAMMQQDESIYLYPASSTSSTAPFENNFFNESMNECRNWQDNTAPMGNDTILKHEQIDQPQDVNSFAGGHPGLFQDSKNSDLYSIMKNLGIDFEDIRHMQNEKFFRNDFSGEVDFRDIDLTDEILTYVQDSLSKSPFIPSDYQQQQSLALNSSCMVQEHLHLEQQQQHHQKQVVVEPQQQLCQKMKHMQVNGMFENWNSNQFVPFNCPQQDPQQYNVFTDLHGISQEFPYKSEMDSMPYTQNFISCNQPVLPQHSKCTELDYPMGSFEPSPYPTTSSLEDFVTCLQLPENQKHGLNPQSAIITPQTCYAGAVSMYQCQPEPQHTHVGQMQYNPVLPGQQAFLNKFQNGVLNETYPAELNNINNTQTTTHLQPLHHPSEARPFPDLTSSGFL
In short: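 Agonist readout: DRE firefly luciferase, with constitutive renilla reporter, in stably transfected U87 cells expressing AHR endogenously. Normalization used positive control (300 uM kynurenic acid) and negative control.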

[2] = biological target: T1, AHR; test: In vitro assay 1: antagonism in human cell line (transactivation assay, U87 cells prestimulated with kynurenic acid, DRE firefly luciferase reporter); type: cell-based; design: host or cells: U87 glioblastoma cells, stably transfected with DRE firefly luciferase and renilla reporter constructs; settings: 150 uM kynurenic acid, 20 hours, read-out: Assay 1: AHR-luc Hum Antagonism IC50
In short: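 Antagonism measured after kynurenic acid prestimulation in U87 cells that express AHR endogenously and stably harbor a firefly luciferase gene under DRE control plus a constitutive renilla construct. Positive and negative controls served for normalization.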

Row | Structure (SMILES) | IC50 [1] [nM] | IC50 [2] [nM]
1 | O=C(N[C@H]1CCCC(F)(F)[C@@H]1O)c1cc(-c2ccc(OC(F)(F)F)cc2)nn(-c2cccnc2)c1=O (single isomer, unassigned; enantiomer 1) [Example 141, N-[(trans)-3,3-Difluoro-2-hydroxycyclohexyl]-3-oxo-2-(pyridin-3-yl)-6-[4-(trifluoromethoxy)phenyl]-2,3-dihydropyridazine-4-carboxamide, Enantiomer 1] | > 20000 | 148
2 | O=C(N[C@H]1CCCC(F)(F)[C@@H]1O)c1cc(-c2ccc(Cl)cc2)nn(-c2cccnc2)c1=O (single isomer, unassigned; enantiomer 1) [Example 144, 6-(4-Chlorophenyl)-N-[(trans)-3,3-difluoro-2-hydroxycyclohexyl]-3-oxo-2-(pyridin-3-yl)-2,3-dihydropyridazine-4-carboxamide, Enantiomer 1] | > 20000 | 31.4
3 | O=C(N[C@H]1COC[C@@H]1O)c1cc(-c2ccc(Cl)cc2)nn(-c2cncc(F)c2)c1=O (single isomer, unassigned; enantiomer 1) [Example 155, 6-(4-Chlorophenyl)-2-(5-fluoropyridin-3-yl)-N-[(trans)-4-hydroxytetrahydrofuran-3-yl]-3-oxo-2,3-dihydropyridazine-4-carboxamide, Enantiomer 1] | > 20000 | 90.5
4 | O=C(N[C@H]1COC[C@@H]1O)c1cc(-c2ccc(OC(F)(F)F)cc2)nn(-c2cccnc2)c1=O (single isomer, unassigned; enantiomer 1) [Example 161, N-[(trans)-4-Hydroxytetrahydrofuran-3-yl]-3-oxo-2-(pyridin-3-yl)-6-[4-(trifluoromethoxy)phenyl]-2,3-dihydropyridazine-4-carboxamide, Enantiomer 1] | > 20000 | 103
5 | O=C(N[C@H]1COC[C@@H]1O)c1cc(-c2ccc(Cl)cc2)nn(-c2cccnc2)c1=O (single isomer, unassigned; enantiomer 1) [Example 169, 6-(4-Chlorophenyl)-N-[(trans)-4-hydroxytetrahydrofuran-3-yl]-3-oxo-2-(pyridin-3-yl)-2,3-dihydropyridazine-4-carboxamide, Enantiomer 1] | > 20000 | 31.7
6 | Cn1cc(-n2nc(-c3ccc(OC(F)(F)F)cc3)cc(C(=O)N[C@@H]3COC[C@@H]3O)c2=O)cn1 (single isomer, unassigned; enantiomer 2) [Example 57, N-[(cis)-4-Hydroxytetrahydrofuran-3-yl]-2-(1-methyl-1H-pyrazol-4-yl)-3-oxo-6-[4-(trifluoromethoxy)phenyl]-2,3-dihydropyridazine-4-carboxamide, Enantiomer 2] | > 20000 | 7.48
7 | Cn1cc(-n2nc(-c3ccc(OC(F)(F)F)cc3)cc(C(=O)N[C@@H]3COC[C@H]3O)c2=O)cn1 (single isomer, unassigned; enantiomer 2) [Example 65, N-[(trans)-4-Hydroxytetrahydrofuran-3-yl]-2-(1-methyl-1H-pyrazol-4-yl)-3-oxo-6-[4-(trifluoromethoxy)phenyl]-2,3-dihydropyridazine-4-carboxamide, Enantiomer 2] | > 20000 | 25.5
8 | CC(C)(O)C(NC(=O)c1cc(-c2ccc(Cl)cc2)nn(-c2cccnc2)c1=O)C(F)(F)F (single isomer, unassigned; enantiomer 2) [Example 123, 6-(4-Chlorophenyl)-3-oxo-2-(pyridin-3-yl)-N-(1,1,1-trifluoro-3-hydroxy-3-methylbutan-2-yl)-2,3-dihydropyridazine-4-carboxamide, Enantiomer 2] | > 20000 | 5.7
9 | CC(C)(O)C(NC(=O)c1cc(-c2ccc(OC(F)(F)F)cc2)nn(-c2cccnc2)c1=O)C(F)(F)F (single isomer, unassigned; enantiomer 2) [Example 137, 3-Oxo-2-(pyridin-3-yl)-N-[1,1,1-trifluoro-3-hydroxy-3-methylbutan-2-yl]-6-[4-(trifluoromethoxy)phenyl]-2,3-dihydropyridazine-4-carboxamide, Enantiomer 2] | > 20000 | 4.23
10 | O=C(N[C@H]1CCCC(F)(F)[C@@H]1O)c1cc(-c2ccc(OC(F)(F)F)cc2)nn(-c2cccnc2)c1=O (single isomer, unassigned; enantiomer 2) [Example 142, N-[(trans)-3,3-Difluoro-2-hydroxycyclohexyl]-3-oxo-2-(pyridin-3-yl)-6-[4-(trifluoromethoxy)phenyl]-2,3-dihydropyridazine-4-carboxamide, Enantiomer 2] | > 20000 | 8.32
11 | O=C(N[C@H]1CCCC(F)(F)[C@@H]1O)c1cc(-c2ccc(Cl)cc2)nn(-c2cccnc2)c1=O (single isomer, unassigned; enantiomer 2) [Example 145, 6-(4-Chlorophenyl)-N-[(trans)-3,3-difluoro-2-hydroxycyclohexyl]-3-oxo-2-(pyridin-3-yl)-2,3-dihydropyridazine-4-carboxamide, Enantiomer 2] | > 20000 | 6.9
12 | O=C(N[C@H]1COC[C@@H]1O)c1cc(-c2ccc(Cl)cc2)nn(-c2cncc(F)c2)c1=O (single isomer, unassigned; enantiomer 2) [Example 156, 6-(4-Chlorophenyl)-2-(5-fluoropyridin-3-yl)-N-[(trans)-4-hydroxytetrahydrofuran-3-yl]-3-oxo-2,3-dihydropyridazine-4-carboxamide, Enantiomer 2] | > 20000 | 25
13 | CCC(CO)NC(=O)c1cc(-c2ccc(C)cc2)nn(-c2cnn(C)c2)c1=O (stereo not shown) [Example 4, N-(1-Hydroxybutan-2-yl)-6-(4-methylphenyl)-2-(1-methyl-1H-pyrazol-4-yl)-3-oxo-2,3-dihydropyridazine-4-carboxamide] | > 20000 | 9.52
14 | Cc1ccc(-c2cc(C(=O)N[C@H](C)CO)c(=O)n(-c3cnn(C)c3)n2)cc1 [Example 9, N-[(2R)-1-Hydroxypropan-2-yl]-6-(4-methylphenyl)-2-(1-methyl-1H-pyrazol-4-yl)-3-oxo-2,3-dihydropyridazine-4-carboxamide] | > 20000 | 164
15 | Cn1cc(-n2nc(-c3ccc(Cl)cc3)cc(C(=O)NC[C@@H](O)CO)c2=O)cn1 [Example 28, 6-(4-Chlorophenyl)-N-[(2R)-2,3-dihydroxypropyl]-2-(1-methyl-1H-pyrazol-4-yl)-3-oxo-2,3-dihydropyridazine-4-carboxamide] | > 20000 | 293
16 | COC[C@@H](CO)NC(=O)c1cc(-c2ccc(Cl)cc2)nn(-c2cnn(C)c2)c1=O [Example 30, 6-(4-Chlorophenyl)-N-[(2R)-1-hydroxy-3-methoxypropan-2-yl]-2-(1-methyl-1H-pyrazol-4-yl)-3-oxo-2,3-dihydropyridazine-4-carboxamide] | > 20000 | 60.8
17 | Cn1cc(-n2nc(-c3ccc(Cl)cc3)cc(C(=O)NC(CO)CO)c2=O)cn1 [Example 31, 6-(4-Chlorophenyl)-N-(1,3-dihydroxypropan-2-yl)-2-(1-methyl-1H-pyrazol-4-yl)-3-oxo-2,3-dihydropyridazine-4-carboxamide] | > 20000 | 244
18 | Cn1cc(-n2nc(-c3ccc(Cl)cc3)cc(C(=O)N[C@@H](CO)C(F)(F)F)c2=O)cn1 [Example 34, (−)-6-(4-Chlorophenyl)-2-(1-methyl-1H-pyrazol-4-yl)-3-oxo-N-[(2S)-1,1,1-trifluoro-3-hydroxypropan-2-yl]-2,3-dihydropyridazine-4-carboxamide] | > 20000 | 130
19 | O=C(NC[C@H](O)C(F)(F)F)c1cc(-c2ccc(Cl)cc2)nn(-c2cnn(C3CCC3)c2)c1=O [Example 40, 6-(4-Chlorophenyl)-2-(1-cyclobutyl-1H-pyrazol-4-yl)-3-oxo-N-[(2S)-3,3,3-trifluoro-2-hydroxypropyl]-2,3-dihydropyridazine-4-carboxamide] | > 20000 | 1100
20 | O=C(N[C@H](CO)C(F)(F)F)c1cc(-c2ccc(Cl)cc2)nn(-c2cnn(C3CCC3)c2)c1=O [Example 41, 6-(4-Chlorophenyl)-2-(1-cyclobutyl-1H-pyrazol-4-yl)-3-oxo-N-[(2R)-1,1,1-trifluoro-3-hydroxypropan-2-yl]-2,3-dihydropyridazine-4-carboxamide] | > 20000 | 1650
